Measured values from patent publication US12435051B2, “Dual modulator of mGluR5 and 5-HT2A receptor, and use thereof” (Vivozon Inc., priority 2020, dated 2025).
Read-outs that look alike come from different tables or passages of the source.

What was measured:
human 5-HT2AR = target: T1, human 5-HT2AR (Homo sapiens, UniProt P28223); assay: HTRF-based IP1 accumulation assay (5-HT2AR antagonistic effect); type: cell-based; details: HEK293 cells overexpressing human 5-HT2AR; serotonin at EC80
T1 construct: expressed in transfected cells; host or cells: HEK293
Summary of the method: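 HEK293 cells stably overexpressing human 5-HT2AR were pre-incubated with compound (top 10 μM, serial dilutions, LiCl buffer) 10 min at room temperature, then stimulated with EC80 serotonin 30 min at 37 °C. IP1 accumulation was read by HTRF; IC50s came from activity normalized to serotonin and IP1 controls.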

[1] = test system: physical (tactile) allodynia in spinal nerve ligation model; assay: Analgesic efficacy experiment using animal model (Chung model, spinal nerve ligation); type: in vivo, Sprague-Dawley rats; details: for inhibition in vivo at 100 mg/kg: 100 mpk
Method: The Chung model (spinal nerve ligation model) is a representative animal model to study neuropathic pain and is widely accepted as a gold standard for an animal pain model by global pharmaceutical companies around the world.
In this experiment, male Sprague-Dawley rats (100-120 g) purchased from Koatech (Pyeongtaek-si, Gyeonggi-do) were used. Rats were kept in a room maintained at constant temperature and humidity with a 12 hour light-dark cycle. Rats were allowed to eat and drink freely during the experiment.
For the Chung surgery, rats were anesthetized by isoflurane inhalation and the left lumbar nerves L5 and L6 were tightly tied with a suture thread (6-0 silk thread) at the end of the dorsal ganglion and at a front of an entrance to the sciatic nerve according to the article (Kim and Chung (1992), Pain 50(3):355-63). After suturing the incision, the rats were recovered for 2 weeks in the controlled maintenance room to induce physical allodynia in the left hind paw of the rat. To measure physical (tactile) allodynia, the rats were placed in a cage with a wire mesh on the bottom. Stimuli of increasing intensity (using the von Frey filaments in a range of 0.41 to 15.8 g) were placed on the plantar surface on the side of the nerve injury. The stimulus intensity at which the pain response (abrupt lifting, licking or sucking of the foot) was induced was recorded while applying gradual increment of stimuli. As described in the study of Chaplan et al. (1994) (Chaplan et al. (1994) J. Neurosci. Methods 53(1):55-63), the paw withdrawal threshold (PWT) was determined by increasing or decreasing continuous stimulus intensity, and the result was analyzed by applying Dixon's up-down method. Only rats showing no behavior dysfunction (e.g., feet dragging or dropping) were selected and included in the study, and the PWT of the rats used was 3.16 g or less.
After measuring the degree of basic reaction before drug injection, each compound and solvent were injected by oral administration (12.5-100 mg/kg), and the measurement was repeated at regular time intervals (60 and 120 minutes) after the drug was injected.
The experimenter conducted the PWT measurement in a blind condition not knowing which rat was administered with which drug. The control group was administered with gabapentin (65 mg/kg, intraperitoneal administration), and was randomly mixed during the measurement. Statistical analysis was performed on the measured pain response threshold by calculating the reversal rate (% reversal) from pain in Equation 1 below. […] Pain reversal rate (% reversal)=[(PWT after drug administration)−(PWT before drug administration)]*100/[(15 g, Estimated PWT in normal animals)−(PWT before drug administration)] [Equation 1]
The PWT used in this time is a value obtained by multiplying the gram, the unit of “force” measure, by 10,000, and taking the logarithm, which is a method generally used in academia.
Each experiment consisted of the compound group, the solvent group of the compound and the gabapentin (GBP) group as positive control group. As solvent of the compound, 0.5% HPMC (hydroxypropylmethyl cellulose) was used.

mGluR5 = target: T2, mGluR5 (Homo sapiens, UniProt P41594); assay: Fluorescence-based Ca2+ mobilization assay; type: cell-based; details: HEK293 cells overexpressing mGluR5; L-glutamate at EC80
T2 construct: expressed in transfected cells; host or cells: HEK293
Summary of the method: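 HEK293 cells stably overexpressing mGluR5, dye-loaded 60 min at 37 °C, then preincubated with compound 30 min at room temperature in the dark. Ca2+ response to L-glutamate at EC80 read on FLIPR for 2 min. Signal normalised to glutamate (100%) and vehicle (0%); IC50 from % inhibition.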

[2] = rat, oral, 50 mpk, 1 h, read-out: % reversal (1 h)
[3] = rat, oral, 50 mpk, 2 h, read-out: % reversal (2 h)
[4] = rat, oral, 1 h, read-out: % reversal (1 h)
[5] = rat, oral, 2 h, read-out: % reversal (2 h)
[6] = Rattus norvegicus, po, 1 h, read-out: % reversal (1 h)
[7] = Rattus norvegicus, po, 2 h, read-out: % reversal (2 h)
[8] = rat, oral, 25 mpk, 1 h, read-out: % reversal (1 h)
[9] = rat, oral, 25 mpk, 2 h, read-out: % reversal (2 h)

T1 sequence (P28223 whole entry): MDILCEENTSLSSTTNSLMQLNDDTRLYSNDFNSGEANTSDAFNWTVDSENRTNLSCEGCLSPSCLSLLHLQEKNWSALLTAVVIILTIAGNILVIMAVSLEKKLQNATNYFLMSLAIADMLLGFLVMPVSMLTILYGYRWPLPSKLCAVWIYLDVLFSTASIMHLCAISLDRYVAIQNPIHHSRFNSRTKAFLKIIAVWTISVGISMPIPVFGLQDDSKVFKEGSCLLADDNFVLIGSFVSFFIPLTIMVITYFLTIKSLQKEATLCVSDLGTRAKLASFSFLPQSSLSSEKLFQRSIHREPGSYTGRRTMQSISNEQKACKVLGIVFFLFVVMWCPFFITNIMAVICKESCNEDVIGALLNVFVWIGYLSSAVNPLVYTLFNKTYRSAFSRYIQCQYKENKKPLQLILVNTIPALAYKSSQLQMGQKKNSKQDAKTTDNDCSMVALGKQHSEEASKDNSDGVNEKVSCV
T2 sequence (P41594 21-1212): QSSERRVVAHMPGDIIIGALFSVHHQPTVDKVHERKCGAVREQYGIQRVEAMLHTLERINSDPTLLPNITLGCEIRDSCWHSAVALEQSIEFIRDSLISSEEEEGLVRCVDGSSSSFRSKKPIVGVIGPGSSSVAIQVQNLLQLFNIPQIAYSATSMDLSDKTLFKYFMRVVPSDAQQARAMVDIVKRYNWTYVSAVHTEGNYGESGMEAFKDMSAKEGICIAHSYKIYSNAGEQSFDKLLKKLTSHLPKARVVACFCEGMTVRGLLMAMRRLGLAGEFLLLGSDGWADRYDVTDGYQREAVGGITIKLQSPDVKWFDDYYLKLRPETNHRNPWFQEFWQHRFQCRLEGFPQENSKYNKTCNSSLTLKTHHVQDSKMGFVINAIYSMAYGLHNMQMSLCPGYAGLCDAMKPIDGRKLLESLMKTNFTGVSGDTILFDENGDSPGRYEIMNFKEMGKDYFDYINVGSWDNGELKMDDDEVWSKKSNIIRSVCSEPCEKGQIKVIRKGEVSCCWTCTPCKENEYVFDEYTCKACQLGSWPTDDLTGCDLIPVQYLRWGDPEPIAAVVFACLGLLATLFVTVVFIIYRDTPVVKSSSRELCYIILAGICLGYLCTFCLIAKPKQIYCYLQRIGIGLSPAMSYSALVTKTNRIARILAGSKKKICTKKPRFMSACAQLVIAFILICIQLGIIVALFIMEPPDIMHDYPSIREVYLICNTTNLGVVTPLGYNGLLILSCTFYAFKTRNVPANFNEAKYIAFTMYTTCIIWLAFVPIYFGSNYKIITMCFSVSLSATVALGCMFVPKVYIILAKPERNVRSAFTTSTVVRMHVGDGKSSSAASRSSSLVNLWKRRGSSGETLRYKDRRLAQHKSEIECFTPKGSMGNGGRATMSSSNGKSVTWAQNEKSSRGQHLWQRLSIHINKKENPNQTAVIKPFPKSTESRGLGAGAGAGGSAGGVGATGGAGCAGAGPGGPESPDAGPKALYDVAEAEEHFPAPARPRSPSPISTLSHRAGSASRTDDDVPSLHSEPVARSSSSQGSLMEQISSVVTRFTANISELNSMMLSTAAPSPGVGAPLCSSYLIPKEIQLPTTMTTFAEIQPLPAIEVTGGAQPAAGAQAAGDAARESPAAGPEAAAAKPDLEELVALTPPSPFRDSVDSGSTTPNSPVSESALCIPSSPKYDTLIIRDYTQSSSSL

SMILES | IC50 (human 5-HT2AR) | inhibition in vivo at 50 mg/kg [1, 2] | inhibition in vivo at 50 mg/kg [1, 3] | IC50 (mGluR5) | also measured
O=C(NCC1CC(F)(F)C1)c1ccc(C#Cc2ccncc2)cc1 [Example 89, N-((3,3-difluorocyclobutyl)methyl)-4-(pyridin-4-ylethynyl)benzamide] | 0.1 to 0.5 µM | 111% | 103% | < 0.1 µM | –
CC1(CNC(=O)c2ccc(C#Cc3ccccc3F)cc2)COC1 [Example 52, 4-((2-fluorophenyl)ethynyl)-N-((3-methyloxetan-3-yl)methyl)benzamide] | 0.1 to 0.5 µM | – | – | < 0.1 µM | inhibition in vivo at 100 mg/kg [1, 4]: 90.8%; inhibition in vivo at 100 mg/kg [1, 5]: 101%
O=C(NCC1CCCOC1)c1ccc(C#Cc2ccccc2F)cc1 (stereo not drawn) [Example 40, 4-((2-fluorophenyl)ethynyl)-N-((tetrahydro-2H-pyran-3-yl)methyl)benzamide] | 0.1 to 0.5 µM | 103% | 111% | < 0.1 µM | –
O=C(NC[C@H]1CCCOC1)c1ccc(C#Cc2ccccc2F)cc1 [Example 92, (R)-4-((2-fluorophenyl)ethynyl)-N-((tetrahydro-2H-pyran-3-yl)methyl)benzamide] | 0.1 to 0.5 µM | – | – | < 0.1 µM | inhibition in vivo at 25 mg/kg [1, 6]: 39.8%; inhibition in vivo at 25 mg/kg [1, 7]: 48.7%
O=C(NCC1CCO1)c1ccc(C#Cc2ccccc2F)cc1 (stereo not drawn) [Example 58, 4-((2-fluorophenyl)ethynyl)-N-(oxetan-2-ylmethyl)benzamide] | 0.1 to 0.5 µM | – | – | 0.1 to 0.5 µM | inhibition in vivo at 25 mg/kg [1, 8]: 61.5%; inhibition in vivo at 25 mg/kg [1, 9]: 28.3%
O=C(NCC1(O)COC1)c1ccc(C#Cc2ccccc2F)cc1 [Example 82, 4-((2-fluorophenyl)ethynyl)-N-((3-hydroxyoxetan-3-yl)methyl)benzamide] | 0.5 to 1 µM | 70.3% | 89.1% | 0.5 to 1 µM | –
O=C(NCC1(NC2CC2)CCC1)c1ccc(C#Cc2ccncc2)cc1 [Example 5, N-((1-(cyclopropylamino)cyclobutyl)methyl)-4-(pyridin-4-ylethynyl)benzamide] | 0.1 to 0.5 µM | 43.1% | 34.4% | 0.1 to 0.5 µM | –
COC1(CNC(=O)c2ccc(C#Cc3ccccc3F)cc2)CCOCC1 [Example 66, 4-((2-fluorophenyl)ethynyl)-N-((4-methoxytetrahydro-2H-pyran-4-yl)methyl)benzamide] | 0.5 to 1 µM | – | – | < 0.1 µM | inhibition in vivo at 25 mg/kg [1, 8]: 64.1%; inhibition in vivo at 25 mg/kg [1, 9]: 43.2%
O=C(NCC1(NC2CC2)CCCCC1)c1ccc(C#Cc2ccccc2F)cc1 [Example 20, N-((1-(cyclopropylamino)cyclohexyl)methyl)-4-((2-fluorophenyl)ethynyl)benzamide] | < 0.1 µM | – | – | 0.5 to 1 µM | inhibition in vivo at 100 mg/kg [1, 4]: 35%; inhibition in vivo at 100 mg/kg [1, 5]: 67%
O=C(NCC1CCOCC1)c1ccc(C#Cc2ccccc2)cc1 [Example 49, 4-(phenylethynyl)-N-((tetrahydro-2H-pyran-4-yl)methyl)benzamide] | 0.1 to 0.5 µM | – | – | < 0.1 µM | inhibition in vivo at 25 mg/kg [1, 8]: 28.5%; inhibition in vivo at 25 mg/kg [1, 9]: 22%
O=C(NCC1(NC2CC2)CCC1)c1ccc(C#Cc2ccccc2F)cc1 [Example 9, N-((1-(cyclopropylamino)cyclobutyl)methyl)-4-((2-fluorophenyl)ethynyl)benzamide] | < 0.1 µM | – | – | 0.1 to 0.5 µM | inhibition in vivo at 100 mg/kg [1, 4]: 64%; inhibition in vivo at 100 mg/kg [1, 5]: 59.6%
O=C(NC[C@H]1CCOC1)c1ccc(C#Cc2ccccc2F)cc1 [Example 69, (R)-4-((2-fluorophenyl)ethynyl)-N-((tetrahydrofuran-3-yl)methyl)benzamide] | 0.5 to 1 µM | – | – | 0.1 to 0.5 µM | inhibition in vivo at 50 mg/kg [1, 6]: 110%; inhibition in vivo at 50 mg/kg [1, 7]: 110%
